Source: patent US5854004A, “Process for screening substances capable of modulating a receptor-dependent cellular signal transmission path” (Boehringer Ingleheim GmbH, priority 1991, dated 1998)

Columns and labels:
[1] = target: T1, human dopamine D1-receptor (Homo sapiens, UniProt P21728); experiment: Induction of pADneo2-C6-BGL (CRE) via dopamine-D1-receptor in co-transfected COS-7 cells; settings: COS-7; 20 μM forskolin or 1 μM apomorphine, 18 h
[2] = target: T1, human dopamine D1-receptor; experiment: Induction of pBHluc1.3 (TRE) via dopamine-D1-receptor in co-transfected COS-7 cells; assay type: cell-based; settings: 10 ng/ml TPA or 1 μM apomorphine, 18 h
[3] = tested on: cell line CHO C6-13; experiment: Luciferase expression in CRE-pretest cell line CHO C6-13; settings: 3 hours treatment, FIG. 33
Method: The transfection by electroporation was carried out as follows: after removal of the medium the cells were detached from the surface by means of a trypsin/PBS solution, suspended in medium and pelleted for 5 minutes at 250×g. The cells were washed in HBS (10 mM HEPES pH 7.4, 150 mM NaCl) and pelleted by centrifuging. The cells were suspended in HBS in a density of 1×10^7 cells/ml. 0.8 ml of cell suspension were mixed with 20 μg of DNA of the plasmid pADneo2-C6-BGL linearised with ScaI and transferred into an electroporation dish. […] After the electroporation the cells were diluted in the medium mentioned above, 20,000 cells per 90 mm culture dish was sown and incubated overnight at 37° C.
Two batches of each were treated with 20 μM forskolin and incubated for a further 5 hours at 37° C. Then the medium was removed from all the cells and the cells were washed with PBS.
Cells of the cell line CHO C6-13 were treated for 3 hours with various substances which alter the intracellular concentration of cAMP or IP3 /DAG or simulate a change in concentration, and also treated with receptor-specific agonists which influence the above-mentioned signal transduction mechanisms.

[4] = target: T1, human dopamine D1-receptor; experiment: Luciferase activity in dopamine D1-receptor test cell line CHO 13D1-38
Method: The cell line CHO C6-13 characterised above was transfected, as described under a), by electroporation with plasmid pAD-CMV2:D1, which had previously been linearised with FspI.
For the use of test cell lines in an automatic screening system with a high throughput rate it is advantageous to use microtitre plates having 96 wells per plate. For this purpose, 60,000 cells (CHO C6-13 or CHO 13D1-38) were sown in 200 μl medium per well in light-impermeable microtitre plates coated with tissue culture
(Microlite™, Dynatech Labroatories) and incubated overnight at 37° C. Then various chemicals were added to the cells and they were incubated for a certain length of time (usually 3 hours). After removal of the medium the cells were washed with PBS, lysed in 1% Triton X-100 and the luciferase activity was measured in a 96-well luminometer (ML-1000, Dynatech) (FIG. 36).
In order to simulate a screening process in which the test substances are preferably supplied in a uniform solvent, a final concentration of 1% DMSO was used in this experiment.

[5] = target: human muscarinic M3-receptor (Homo sapiens, UniProt P20309); assay type: cell-based
[6] = tested on: HeLa cells; experiment: Induction of TRE-sensor-DNA (luciferase) in transiently transfected pretest cells, HeLa; settings: 18 h
Method: (§1) Approximately 1×10^7 cells per transfection were detached from the surface of the culture dish using trypsin and centrifuged for 5 minutes at 1200 rpm at ambient temperature (Heraeus Minifuge), washed once with 5 ml of serum-free medium, centrifuged for 5 minutes at 1200 rpm and suspended in 1 ml of serum-free medium. Then the cells were mixed with 250 μg/ml DEAE-dextrane, 5 μg plasmid DNA and 50 μg/ml chloroquin, incubated for 30 minutes at 37° C., washed once with medium containing no FCS and incubated overnight at 37° C. with 10 ml of fresh serum-containing medium. Then the medium was changed and after 4 hours the cells were induced, either with 10 ng TPA/ml medium or with 20 μM forskolin. […] The cells were lysed by the addition of 100 μl lysing buffer (1% Triton X-100, 25 mM glycylglycine pH 7.8, 15 mM MgSO4, 4 mM EDTA and 1 mM […]), the lysate was centrifuged for 5 minutes and the supernatant was transferred into a fresh test tube. […] The measuring time for light emission was 10 seconds.
(§2) The cell lines A549, HeLa and COS-7 were transiently transfected as described above by the addition of plasmid pBHluc1.3 and induced by the addition of TPA. Cells which were only transfected but not induced were used as a negative control.
(§3) The cell lines A549, HeLa and COS-7 were transiently transfected by the addition of plasmid pADneo(3TRE)BGluci and induced by the addition of TPA or forskolin. Once again, cells which were only transfected but not induced were used as a negative control.

[7] = tested on: cell line A20; experiment: Luciferase induction in stable TRE-pretest cell line A20 (A549, pBHluc1.3)
Method: In order to produce a stable (pre-)test cell line for substances which influence the expression of the luciferase gene by direct or receptor-mediated modulation of the IP3 /DAC-signal transduction pathway, A549 cells were simultaneously transfected with the plasmid pBHluc1.3 and the selection plasmid pRSVneo by electroporation as follows: after removal of the medium the cells were detached from the surface by means of a trypsin/PBS solution, suspended in medium and sedimented for 5 minutes at 250×g. […] 0.8 ml of cell suspension were combined with 20 μg of pBHluc1.3 and 2 μg of pRSVneo. Both plasmids had previously been linearised with BamHI.
(§4) 15-20 days after transfection, individual cell clones were transferred into 96-well microtitre plates and further cultivated. […] Approximately 40,000 cells in each clone were sown, in a procedure repeated 6 times, in 200 μl per well of a light-impervious 96-well microtitre plate coated with tissue culture (Microlite™, Dynatech Laboratories) and incubated overnight at 37° C. Three mixtures were treated with 10 ng TPA/ml and incubated for a further 8 hours. Then the medium was removed and the cells were washed twice with PBS.
(§5) The pretest cell line A20 was transfected, as described under a), by electroporation with the plasmid pAHyg-NK2, which had previously been linearised with BglII. From the day after transfection onwards, the cells were grown in selection medium, as used for the cell line A20 and additionally enriched with 150 μg/ml hygromycin B (Sigma). Individual clones were tested for inducibility of the luciferase activity as described under a).

[8] = tested on: COS-7 cells; experiment: Induction of TRE-sensor-DNA (luciferase) in transiently transfected pretest cells, COS-7
Method: as §1, §2, §3
(§6) The cell lines COS-7 and A549 were transiently transfected by the addition of plasmid pADneo(3×TREd16)BGluci, pADneo(3×TREd21)BGluci, pADneo(3×TREd24)BGluci, pADneo(3×TREd34)BGluci, pADneo(6×TREd16)BGluci, pADneo(6×TREd21)BGluci, pADneo(6×TREd24)BGluci or pADneo(6×TREd34)BGluci and induced by the addition of TPA or forskolin.

[9] = tested on: A549 cells; experiment: Induction of TRE-sensor-DNA (luciferase) in transiently transfected pretest cells, A549
Method: as §1, §2, §3, §6

[10] = tested on: A549 cells; settings: Voraberger et al., 1991; cited from earlier work
[11] = target: T2, human neurokinin 2-receptor (Homo sapiens, UniProt P21452); experiment: Luciferase activity in NK2-test cell line A20/NK2-122; settings: A20/NK2-122, depending on the dose
T2 sequence (P21452 1-398): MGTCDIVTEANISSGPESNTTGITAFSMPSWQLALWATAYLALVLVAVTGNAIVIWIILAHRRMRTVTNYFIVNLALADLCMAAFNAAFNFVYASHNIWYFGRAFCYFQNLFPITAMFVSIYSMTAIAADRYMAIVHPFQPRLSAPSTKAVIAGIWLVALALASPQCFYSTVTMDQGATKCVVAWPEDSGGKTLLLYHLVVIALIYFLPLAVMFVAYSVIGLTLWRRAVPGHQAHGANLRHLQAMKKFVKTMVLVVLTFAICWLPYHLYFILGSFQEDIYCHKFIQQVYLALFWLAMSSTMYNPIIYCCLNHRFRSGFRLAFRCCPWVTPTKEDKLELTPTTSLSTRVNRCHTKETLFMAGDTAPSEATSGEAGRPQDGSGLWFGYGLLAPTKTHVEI
Method: as §4
This Example illustrates the preparation of a test cell line for the human neurokinin 2 (NK2)-receptor which is coupled to the phospholipase C-signal transduction pathway. This test cell line makes it possible, by measurement of the luciferase activity, to identify substances which modulate the intracellular IP3 /DAG concentrations, depending on the receptor.
as §5

[12] = target: T3, human 5HT2-receptor (Homo sapiens, UniProt P28223); experiment: Induction of pBHluc1.3 (TRE) via 5-HT2-receptor in co-transfected COS-7 cells; assay type: cell-based
Method: (§7) Induction was carried out with i) 20 μM forskolin (Sigma P8139), ii) 10 μα-methylserotonin-maleate (RBI M-110), and iii) 10 μα-methylserotonin-maleate and 10 μM ketanserin-tartrate (RBI S-006). […] It follows, from the above results, that, depending on 5-HT2 -receptors, only regulation elements which respond to IP3 /DAG (TRE), but not regulation elements which respond to cAMP (CRE) are selectively activated.

[13] = target: T3, human 5HT2-receptor; experiment: cell-based; settings: read-out: induction of luciferase activity, clone A20/5HT2-11
Text: The human 5HT2-receptor is another example of a receptor coupled to the phospholipase C-signal transduction pathway. The TRE-cell line A20 is therefore also suitable in this case as a starting cell line for establishing a test cell line in order to discover substances which modulate the activity of the 5HT2-receptor.
The plasmid pAHyg-5HT2, linearised with BglII, was for this purpose transfected into the cell line A20 by electroporation as described under a) and grown in selection medium.
For this purpose the cells were simultaneously treated with a constant amount of serotonin (1 μg) and increasing amounts of antagonist.

[14] = target: T3, human 5HT2-receptor; experiment: Induction of pADneo2-C6-BGL (CRE) via 5-HT2-receptor in co-transfected COS-7 cells; assay type: cell-based; settings: 20 μM forskolin or 10 μ α-methylserotonin-maleate
Method: as §7

[15] = 10 ng TPA/ml or 20 μM forskolin
[16] = COS-7, 10 ng TPA/ml or 20 μM forskolin, 18 h

CN1CCc2cccc3c2[C@H]1Cc1ccc(O)c(O)c1-3 [apomorphine]
induction of luciferase expression (CRE) [1]: induced by forskolin and by apomorphine | induction of luciferase expression (TRE) [2]: not by apomorphine | change in luciferase expression/activity [3]: did not bring about any significant change in the luciferase activity | increase in luciferase activity, clone CHO 13D1-38 ([4]; 10 μM apomorphine, 4 hours): highest increase in luciferase activity | concentration which brings about maximum induction of the luciferase reporter gene ([4]; apomorphine final concentration): 1 µM | time after stimulation at which increased luciferase activity was measured ([4]; apomorphine, FIG. 37A): one | time to maximum luciferase activation ([4]; apomorphine, FIG. 37A): 2.5 h | time up to which luciferase activation remained constant ([4]; apomorphine, FIG. 37A): 4 h | dependency of ED50 values on duration of receptor stimulation ([4]; apomorphine, FIG. 37B): no significant dependency

CCCCCCCCCCCCCC(=O)O[C@@H]1[C@@H](C)[C@@]2(O)[C@@H](C=C(CO)C[C@]3(O)C(=O)C(C)=C[C@@H]23)[C@@H]2C(C)(C)[C@]12OC(C)=O [TPA, phorbol-12-myristat-13-acetate]
induction of luciferase expression [5]: induced both by TPA and by carbachol | induction of pADneo(3TRE)BGluci [6, 15]: can be induced in the tested cells by TPA | induction of pBHluc1.3 by TPA or forskolin [6, 15]: could also be induced by TPA | fold induction at 0.01 µg/mL ([6]; Homo sapiens, read-out: induction of pBHluc1.3 (luciferase)): > 10 | maximum induction of luciferase activity by TPA ([7]; A20, depending on the dose): ≤ 18 times | fold induction at 0.01 µg/mL ([7]; Homo sapiens, A549, 8 h, read-out: inducibility of luciferase activity, clone A20): 15 to 20 | induction of pADneo(6×TREdx)BGluci depending on spacing of TRE-elements ([8]; COS-7, 10 ng TPA/ml): higher when the spacing of the TRE-elements is smaller | induction of pADneo(nTREdx)BGluci, 6 versus 3 TRE-elements ([8]; COS-7, 10 ng TPA/ml): the induction with TPA for the constructions with 6 TRE-elements is greater than for the constructions with 3 TRE-elements | induction of pADneo(3TRE)BGluci [8, 16]: can be induced in the tested cells by TPA | induction of pBHluc1.3 by TPA or forskolin [8, 16]: could also be induced by TPA | fold induction at 0.01 µg/mL ([8]; Primates, COS-7, 18 h, read-out: induction of pBHluc1.3 (luciferase)): > 10 | induction of luciferase expression (TRE) [2]: induced by TPA | change in luciferase expression/activity [3]: did not bring about any significant change in the luciferase activity | induction of pADneo(6×TREdx)BGluci depending on spacing of TRE-elements ([9]; A549, 10 ng TPA/ml): higher when the spacing of the TRE-elements is smaller | induction of pADneo(nTREdx)BGluci, 6 versus 3 TRE-elements ([9]; A549, 10 ng TPA/ml): the induction with TPA for the constructions with 6 TRE-elements is greater than for the constructions with 3 TRE-elements | induction of pADneo(3TRE)BGluci ([9]; A549, 10 ng TPA/ml or 20 μM forskolin, 18 h): can be induced in the tested cells by TPA | fold induction at 0.01 µg/mL ([9]; Homo sapiens, A549, 18 h, read-out: induction of pBHluc1.3 (luciferase)): > 10 | induction of 1.3 kb ICAM-1 fragment / pBHluc1.3 [10]: can be induced by TPA | maximum induction of luciferase activity by TPA [11]: ≤ 18 times

CC(N)Cc1c[nH]c2ccc(O)cc12 (stereo not drawn) [α-methylserotonin-maleate]
induction of luciferase expression (TRE) ([12]; COS-7, 10 ng/ml TPA or 10 μg α-methylserotonin-maleate, 18 h): induced both by TPA and by α-methylserotonin-maleate | fold induction at 10 µM [13]: 4 to 5 | induction of luciferase expression (CRE) [14]: not by the 5-HT2-receptor-agonist α-methylserotonin-maleate

O=C(c1ccc(F)cc1)C1CCN(CCn2c(=O)[nH]c3ccccc3c2=O)CC1 [ketanserin-tartrate]
prevention of agonist-mediated induction ([12]; 10 μM α-methylserotonin-maleate and 10 μM ketanserin-tartrate): prevented
